Experimental data published in patent US10266537B2, “3-acetylenyl-pyrazole-pyrimidine derivative, and preparation method therefor and uses thereof” (Si Chuan University, priority 2015, dated 2019).
Like-named read-outs stand apart in the source and are kept apart here.

How the values were obtained:
MDA-MB-231 = experiment: Cell proliferation inhibition assay (MTT); type: cell-based, human; settings: Homo sapiens, read-out: Proliferative inhibitory activity MDA-MB-231 (IC50 class)
MDA-MB-435 = experiment: Cell proliferation inhibition assay (MTT); type: cell-based, human; settings: Homo sapiens, read-out: Proliferative inhibitory activity MDA-MB-435 (IC50 class)

Row | SMILES | IC50 (MDA-MB-231; MDA-MB-231, MTT, 72 hours) | IC50 (MDA-MB-435; MDA-MB-435, MTT, 72 hours) | IC50 (MDA-MB-231; MDA-MB-231, 72 h) | IC50 (MDA-MB-435; MDA-MB-435, 72 h)
1 | Cc1ccc(NC(=O)c2ccc(Cl)c(C(F)(F)F)c2)cc1C#Cc1nn(C2CCCN(C(=O)[C@@H](C)O)C2)c2ncnc(N)c12 (some centres unmarked) [Compound 87] | < 0.1 µM | > 1 µM |  | 
2 | Cc1ccc(NC(=O)c2cc(Cl)cc(Cl)c2)cc1C#Cc1nn(C2CCN(C)CC2)c2ncnc(N)c12 [Compound 68] | 0.1 to 0.5 µM | 0.1 to 0.5 µM |  | 
3 | Cc1ccc(NC(=O)c2ccc(Cl)c(C(F)(F)F)c2)cc1C#Cc1nn(C2CCCN(S(C)(=O)=O)C2)c2ncnc(N)c12 (centres unmarked) [Compound 91] | < 0.1 µM | 0.1 to 0.5 µM |  | 
4 | Cc1ccc(C(=O)Nc2ccc(CN3CCN(C)CC3)c(C(F)(F)F)c2)cc1C#Cc1nn([C@H]2CCOC2)c2ncnc(N)c12 [Compound 21] |  |  | < 0.1 µM | < 0.1 µM
5 | Cc1ccc(NC(=O)c2cncc(C(F)(F)F)c2)cc1C#Cc1nn(C2CCN(C)CC2)c2ncnc(N)c12 [Compound 58] | 0.1 to 0.5 µM | < 0.1 µM |  | 
6 | Cc1ccc(NC(=O)c2nc(C(C)(C)C)cs2)cc1C#Cc1nn(C2CCN(C)CC2)c2ncnc(N)c12 [Compound 65] | < 0.1 µM | < 0.1 µM |  | 
7 | Cc1ccc(NC(=O)c2cccc(C(F)(F)F)n2)cc1C#Cc1nn(C2CCN(C)CC2)c2ncnc(N)c12 [Compound 57] | 0.5 to 1 µM | > 1 µM |  | 
8 | CCn1nc(C#Cc2cc(C(=O)Nc3ccc(CN4CCN(C)CC4)c(C(F)(F)F)c3)ccc2C)c2c(N)ncnc21 [Compound 2] | < 0.1 µM | < 0.1 µM |  | 
9 | Cc1ccc(NC(=O)c2ccc(Cl)c(C(F)(F)F)c2)cc1C#Cc1nn(C2CCN(S(C)(=O)=O)CC2)c2ncnc(N)c12 [Compound 81] | < 0.1 µM | 0.1 to 0.5 µM |  | 
10 | Cc1ccc(NC(=O)c2nc(C(C)(C)C)cs2)cc1C#Cc1nn(CC2CCN(C)CC2)c2ncnc(N)c12 [Compound 96] | 0.1 to 0.5 µM | 0.1 to 0.5 µM |  | 
11 | CN1CCC(n2nc(C#Cc3cccc(C(=O)Nc4cccc(C(F)(F)F)c4)c3)c3c(N)ncnc32)CC1 [Compound 37] | > 1 µM | 0.1 to 0.5 µM |  | 
12 | Cc1ccc(NC(=O)c2ccc(Cl)c(C(F)(F)F)c2)cc1C#Cc1nn(CC2CCN(S(C)(=O)=O)C2)c2ncnc(N)c12 (centres unmarked) [Compound 76] | < 0.1 µM | 0.1 to 0.5 µM |  | 
13 | Cc1ccc(NC(=O)c2ccc(Cl)c(C(F)(F)F)c2)cc1C#Cc1nn(CC2CCN(C)CC2)c2ncnc(N)c12 [Compound 79] | < 0.1 µM | 0.5 to 1 µM |  | 
14 | Cc1ccc(NC(=O)c2ccnc(C(F)(F)F)c2)cc1C#Cc1nn(C2CCN(C)CC2)c2ncnc(N)c12 [Compound 59] | 0.1 to 0.5 µM | 0.1 to 0.5 µM |  | 
15 | Cc1ccc(NC(=O)c2cc(C(C)(C)C)nn2C)cc1C#Cc1nn(C2CCN(C)CC2)c2ncnc(N)c12 [Compound 63] | 0.1 to 0.5 µM | < 0.1 µM |  | 
16 | Cc1ccc(NC(=O)c2cc(C(F)(F)F)cc(Cl)c2F)cc1C#Cc1nn(C2CCN(C)CC2)c2ncnc(N)c12 [Compound 56] | > 1 µM | > 1 µM |  | 
17 | CN1CCC(n2nc(C#Cc3cc(C(=O)Nc4cccc(C(F)(F)F)c4)ccc3Cl)c3c(N)ncnc32)CC1 [Compound 38] | 0.5 to 1 µM | 0.1 to 0.5 µM |  | 
18 | Cc1ccc(NC(=O)c2cc(C(F)(F)F)cc(C(F)(F)F)c2)cc1C#Cc1nn(C2CCN(C)CC2)c2ncnc(N)c12 [Compound 54] | < 0.1 µM | < 0.1 µM |  | 
19 | Cc1ccc(NC(=O)c2ccc(Cl)c(C(F)(F)F)c2)cc1C#Cc1nn(CC2CCN(S(C)(=O)=O)CC2)c2ncnc(N)c12 [Compound 75] | 0.1 to 0.5 µM | > 1 µM |  | 
20 | Cc1ccc(NC(=O)c2ccc(Cl)c(C(F)(F)F)c2)cc1C#Cc1nn(C2CCC(O)CC2)c2ncnc(N)c12 (centres unmarked) [Compound 74] | < 0.1 µM | < 0.1 µM |  | 
21 | CN1CCC(n2nc(C#Cc3cc(NC(=O)Nc4cccc(C(F)(F)F)c4)ccc3Cl)c3c(N)ncnc32)CC1 [Compound 36] | 0.5 to 1 µM | 0.1 to 0.5 µM |  | 
22 | CCn1nc(C#Cc2cc(NC(=O)c3ccc(CN4CCN(C)CC4)c(C(F)(F)F)c3)ccc2C)c2c(N)ncnc21 [Compound 102] | < 0.1 µM | < 0.1 µM |  | 
23 | Cc1ccc(NC(=O)c2cc(F)cc(C(F)(F)F)c2)cc1C#Cc1nn(C2CCN(C)CC2)c2ncnc(N)c12 [Compound 51] | 0.5 to 1 µM | > 1 µM |  | 
24 | Cc1ccc(NC(=O)c2ccc(Cl)c(C(F)(F)F)c2)cc1C#Cc1nn([C@@H]2CCCN(S(C)(=O)=O)C2)c2ncnc(N)c12 [Compound 90] | < 0.1 µM | 0.5 to 1 µM |  | 
25 | Cc1ccc(NC(=O)c2ccc(Cl)c(C(F)(F)F)c2)cc1C#Cc1nn(CC(=O)N2CCOCC2)c2ncnc(N)c12 [Compound 80] | < 0.1 µM | > 1 µM |  | 

Continued, in another order:

Row | IC50 (MDA-MB-231; MDA-MB-231, MTT, 72 hours) | IC50 (MDA-MB-435; MDA-MB-435, MTT, 72 hours) | SMILES | IC50 (MDA-MB-231; MDA-MB-231, 72 h) | IC50 (MDA-MB-435; MDA-MB-435, 72 h)
26 | < 0.1 µM | < 0.1 µM | Cc1ccc(NC(=O)c2ccc(C)c(C(F)(F)F)c2)cc1C#Cc1nn(C[C@H](C)CO)c2ncnc(N)c12 [Compound 110] |  | 
27 | 0.1 to 0.5 µM | 0.1 to 0.5 µM | Cc1cccc(C(=O)Nc2ccc(C)c(C#Cc3nn(C4CCN(C)CC4)c4ncnc(N)c34)c2)c1 [Compound 55] |  | 
28 | < 0.1 µM | < 0.1 µM | Cc1ccc(NC(=O)c2ccc(C)c(C(F)(F)F)c2)cc1C#Cc1nn(C2CCN(C)CC2)c2ncnc(N)c12 [Compound 42] |  | 
29 | 0.5 to 1 µM | > 1 µM | Cc1ccc(NC(=O)c2ccc(Cl)c(C(F)(F)F)c2)cc1C#Cc1nn(C2CCC2)c2ncnc(N)c12 [Compound 77] |  | 
30 | < 0.1 µM | 0.5 to 1 µM | Cc1ccc(NC(=O)c2cccc(Cl)c2)cc1C#Cc1nn(C2CCN(C)CC2)c2ncnc(N)c12 [Compound 49] |  | 
31 | 0.1 to 0.5 µM | 0.1 to 0.5 µM | CC(=O)Nc1ncnc2c1c(C#Cc1cc(C(=O)Nc3ccc(CN4CCN(C)CC4)c(C(F)(F)F)c3)ccc1C)nn2C(C)C [Compound 15] |  | 
32 | < 0.1 µM | 0.1 to 0.5 µM | Cc1ccc(NC(=O)c2ccc(Cl)c(C(F)(F)F)c2)cc1C#Cc1nn([C@@H]2CCCN(C)C2)c2ncnc(N)c12 [Compound 89] |  | 
33 | < 0.1 µM | > 1 µM | Cc1ccc(NC(=O)c2ccc(Cl)c(C(F)(F)F)c2)cc1C#Cc1nn([C@@H]2CCN(C(=O)[C@H](C)O)C2)c2ncnc(N)c12 [Compound 72] |  | 
34 | < 0.1 µM | 0.1 to 0.5 µM | Cc1ccc(NC(=O)c2ccc(C)c(C(F)(F)F)c2)cc1C#Cc1nn(CC2CCN(C)CC2)c2ncnc(N)c12 [Compound 115] |  | 
35 | < 0.1 µM | 0.1 to 0.5 µM | Cc1ccc(NC(=O)c2ccc(C)c(C(F)(F)F)c2)cc1C#Cc1nn(C[C@@H](C)CO)c2ncnc(N)c12 [Compound 99] |  | 
36 | 0.1 to 0.5 µM | 0.5 to 1 µM | Cc1ccc(NC(=O)c2ccc(Cl)c(Cl)c2)cc1C#Cc1nn(C2CCN(C)CC2)c2ncnc(N)c12 [Compound 60] |  | 
37 | < 0.1 µM | 0.1 to 0.5 µM | Cc1ccc(NC(=O)c2ccc(Cl)cc2)cc1C#Cc1nn(C2CCN(C)CC2)c2ncnc(N)c12 [Compound 53] |  | 
38 | 0.1 to 0.5 µM | 0.1 to 0.5 µM | Cc1ccc(NC(=O)c2ccc(C)c(C(F)(F)F)c2)cc1C#Cc1nn([C@@H]2CCN(C)C2)c2ncnc(N)c12 [Compound 116] |  | 
39 | < 0.1 µM | 0.1 to 0.5 µM | Cc1ccc(NC(=O)c2ccc(Cl)c(C(F)(F)F)c2)cc1C#Cc1nn([C@@H]2CCCN(C(=O)[C@@H](C)O)C2)c2ncnc(N)c12 [Compound 88] |  | 
40 | < 0.1 µM | < 0.1 µM | Cc1ccc(NC(=O)c2cccc(C(C)(C)C)c2)cc1C#Cc1nn(C2CCN(C)CC2)c2ncnc(N)c12 [Compound 40] |  | 
41 | < 0.1 µM | < 0.1 µM | Cc1ccc(C(=O)Nc2cccc(C(F)(F)F)c2)cc1C#Cc1nn(C[C@H](C)CO)c2ncnc(N)c12 [Compound 106] |  | 
42 | < 0.1 µM | > 1 µM | Cc1ccc(NC(=O)c2ccc(Cl)c(C(F)(F)F)c2)cc1C#Cc1nn(C2CCCN(C(=O)[C@H](C)O)C2)c2ncnc(N)c12 (some centres unmarked) [Compound 86] |  | 
43 | 0.5 to 1 µM | > 1 µM | Cc1ccc(NC(=O)c2ccc(C(F)(F)F)cc2)cc1C#Cc1nn(C2CCN(C)CC2)c2ncnc(N)c12 [Compound 41] |  | 
44 | < 0.1 µM | < 0.1 µM | Cc1ccc(C(=O)Nc2cccc(C(F)(F)F)c2)cc1C#Cc1nn([C@@H]2CCN(C)C2)c2ncnc(N)c12 [Compound 107] |  | 
45 | 0.5 to 1 µM | 0.5 to 1 µM | Cc1ccc(NC(=O)c2ccc(F)c(C(F)(F)F)c2)cc1C#Cc1nn(C2CCN(C)CC2)c2ncnc(N)c12 [Compound 47] |  | 
46 | 0.1 to 0.5 µM | > 1 µM | Cc1ccc(NC(=O)c2ccc(C)c(C#Cc3nn(C(C)C)c4ncnc(N)c34)c2)cc1 [Compound 22] |  | 
47 | < 0.1 µM | > 1 µM | Cc1ccc(NC(=O)c2ccc(Cl)c(C(F)(F)F)c2)cc1C#Cc1nn([C@@H]2CCN(C)C2)c2ncnc(N)c12 [Compound 85] |  | 
48 | 0.1 to 0.5 µM | 0.1 to 0.5 µM | CCNc1ncnc2c1c(C#Cc1cc(C(=O)Nc3cccc(C(F)(F)F)c3)ccc1C)nn2CC [Compound 104] |  | 
49 | > 1 µM | > 1 µM | COc1ccc(C(=O)Nc2ccc(C)c(C#Cc3nn(C4CCN(C)CC4)c4ncnc(N)c34)c2)cc1 [Compound 43] |  | 
50 | < 0.1 µM | 0.1 to 0.5 µM | Cc1ccc(NC(=O)c2ccc(Cl)c(C(F)(F)F)c2)cc1C#Cc1nn(C[C@H](C)CO)c2ncnc(N)c12 [Compound 83] |  | 
51 | < 0.1 µM | 0.1 to 0.5 µM | Cc1ccc(NC(=O)c2ccc(Cl)c(C(F)(F)F)c2)cc1C#Cc1nn(C2CCCN(C)C2)c2ncnc(N)c12 (centres unmarked) [Compound 92] |  | 
52 | 0.5 to 1 µM | > 1 µM | Cc1ccc(NC(=O)c2cccc(F)c2)cc1C#Cc1nn(C2CCN(C)CC2)c2ncnc(N)c12 [Compound 45] |  | 
53 | < 0.1 µM | < 0.1 µM | Cc1ccc(NC(=O)c2cccc(C(F)(F)F)c2)cc1C#Cc1nn(C[C@@H](C)CO)c2ncnc(N)c12 [Compound 101] |  | 
54 | < 0.1 µM | < 0.1 µM | Cc1ccc(NC(=O)c2ccc(Cl)c(C(F)(F)F)c2)cc1C#Cc1nn(C2CCN(C(=O)[C@@H](C)O)CC2)c2ncnc(N)c12 [Compound 71] |  | 
55 | < 0.1 µM | 0.5 to 1 µM | Cc1ccc(NC(=O)c2ccc(Cl)c(C(F)(F)F)c2)cc1C#Cc1nn(C2CCCC2)c2ncnc(N)c12 [Compound 78] |  | 
